Results taken from patent US7202254B2, “Antibacterial compounds: process for their preparation and pharmaceutical compositions containing them” (Dr. Reddy's Laboratories Limited, priority 2002, dated 2007).

Structure (SMILES) | melting point
COC(=S)NCc1cn(-c2ccc(N3CCC4(CC3)OCCO4)c(F)c2)nn1 [Example 62, {1-[4-(1,4-Dioxa-8-aza-spiro[4.5]dec-8-yl)-3-fluoro-phenyl]-1H-[1,2,3]triazol-4-ylmethyl}-thiocarbamic acid O-methyl ester] | 135 to 137 °C
COC(=S)NCc1cn(-c2ccc(N3CCS(=N)CC3)c(F)c2)nn1 [Example 63, {1-[3-Fluoro-4-(1-imino-1lambda*4*-thiomorpholin-4-yl)-phenyl]-1H-[1,2,3]triazol-4-ylmethyl}-thiocarbamic acid O-methyl ester] | 198 °C
CNC(=S)NCc1cn(-c2cc(F)c(N3CCOCC3)c(F)c2)nn1 [Example 64, 1-[1-(3,5-Difluoro-4-morpholin-4-yl-phenyl)-1H-[1,2,3]triazol-4-ylmethyl]-3-methyl-thiourea] | 181 °C
CCNC(=S)NCc1cn(-c2ccc(N3CC[S+]([O-])CC3)c(F)c2)nn1 [Example 65, 1-Ethyl-3-{1-[3-fluoro-4-(1-oxo-1lambda*4*-thiomorpholin-4-yl)-phenyl]-1H-[2,3]triazol-4-ylmethyl}-thiourea] | 204 °C
NNC(=S)NCc1cn(-c2ccc(N3CCSCC3)c(F)c2)nn1 [Example 66, 1-[3-fluoro-4-(4-thiomorpholinyl)phenyl]-1H-1,2,3-triazol-4-ylmethylamino-hydrazinomethanethione] | 174 to 176 °C
CSC(=S)NCc1cn(-c2ccc(N3CC[S+]([O-])CC3)c(F)c2)nn1 [Example 68, {1-[3-Fluoro-4-(1-oxo-1lambda*4*-thiomorpholin-4-yl)-phenyl]-1H-[1,2,3]triazol-4-ylmethyl}-dithiocarbamic acid methyl ester] | 184 °C
O=C(NC(=S)NCc1cn(-c2ccc(N3CCOCC3)c(F)c2)nn1)c1ccccc1 [Example 70, 1-Benzoyl-3-[1-(3-fluoro-4-morpholin-4-yl-phenyl)-1H-[1,2,3]triazol-4-ylmethyl]-thiourea] | 138 °C
O=C(NCc1cn(-c2ccc(N3CCOCC3)c(F)c2)nn1)c1cnccn1 [Example 71, Pyrazine-2-carboxylic acid [1-(3-fluoro-4-morpholin-4-yl-phenyl)-1H-[1,2,3]triazol-4-ylmethyl]-amide] | 215 °C
O=C(NCc1cn(-c2ccc(N3CCSCC3)c(F)c2)nn1)c1cnccn1 [Example 72, N-{1-[3-fluoro-4-(4-thiomorpholinyl)phenyl]-1H-1,2,3-triazol-4-ylmethyl}-pyrazine-2-carboxamide] | 216 to 218 °C
CSC(=S)OCc1cn(-c2ccc(N3CCOCC3)c(F)c2)nn1 [Example 73, Dithiocarbonic acid O-[1-(3-fluoro-4-morpholin-4-yl-phenyl)-1H-[1,2,3]triazol-4-ylmethyl]ester S-methyl ester] | 118 °C
O=C(NCc1cn(-c2ccc(N3CCSCC3)c(F)c2)nn1)c1ccccn1 [Example 75, N-{1-[3-Fluoro-4-(4-thiomorpholinyl)phenyl]-1H-1,2,3-triazol-4-ylmethyl}-pyridine-2-carboxamide] | 190 to 192 °C
NC(=S)NCc1cn(-c2ccc(N3CCOCC3)c(F)c2)nn1 [Example 76, [1-(3-Fluoro-4-morpholin-4-yl-phenyl)-1H-[1,2,3]triazol-4-ylmethyl]-thiourea] | 192 °C
NC(=S)NCc1cn(-c2ccc(N3CC[S+]([O-])CC3)c(F)c2)nn1 [Example 77, {1-[3-Fluoro-4-(1-oxo-1lambda*4*-thiomorpholin-4-yl)-phenyl]-1H-[1,2,3]triazol-4-ylmethyl}-thiourea] | 228 to 230 °C
CNC(=S)NCc1cn(-c2ccc(N3CC[S+]([O-])CC3)c(F)c2)nn1 [Example 78, 1-{1–[3-Fluoro-4-(1-oxo-1lambda*4*-thiomorpholin-4-yl)-phenyl]-1H-[1,2,3]triazol-4-ylmethyl}-3-methyl-thiourea] | 182 to 184 °C
O=C(NCc1cn(-c2ccc(N3CCOCC3)c(F)c2)nn1)C(Cl)Cl [Example 79, 2,2-Dichloro-N-[1-(3-fluoro-4-morpholin-4-yl-phenyl)-1H-[1,2,3]triazol-4-ylmethyl]-acetamide] | 190 °C
CS(=O)(=O)NCc1cn(-c2ccc(N3CC[S+]([O-])CC3)c(F)c2)nn1 [Example 80, N-{1-[3-Fluoro-4-(1-oxo-1lambda*4*-thiomorpholin-4-yl)-phenyl]-1H-[1,2,3]triazol-4-ylmethyl}-methanesulfonamide] | 174 to 176 °C
Fc1cc(-n2cc(CNC(=S)c3ccccn3)nn2)ccc1N1CCSCC1 [Example 81, N-{1-[3-fluoro-4-(−4-thiomorpholinyl)phenyl]-1H-1,2,3-triazol-4-ylmethyl}-pyridine-2-thiocarboxamide] | 158 to 160 °C
COC(=S)NCc1cn(-c2ccc(N3CCC(=O)CC3)c(F)c2)nn1 [Example 82, {1-[3-Fluoro-4-(4-oxo-piperidin-1-yl)-phenyl]-1H-[1,2,3]triazol-4-ylmethyl}-thiocarbamic acid O-methyl ester] | 145 to 147 °C
COC(=S)NCc1cn(-c2ccc(N3CCC(=NO)CC3)c(F)c2)nn1 [Example 83, {1-[3-Fluoro-4-(4-hydroxyimino-piperidin-1-yl)-phenyl]-1H-[1,2,3]triazol-4-ylmethyl}-thiocarbamic acid O-methyl ester] | 141 to 142 °C
COC(=S)NCc1cn(-c2ccc(N3CCC(=C(C#N)C#N)CC3)c(F)c2)nn1 [Example 84, {1-[4-(4-Dicyanomethylene-piperidin-1-yl)-3-fluoro-phenyl]-1H-[1,2,3]triazol-4-ylmethyl}-thiocarbamic acid O-methyl ester] | 198 °C
COC(=S)NCc1cn(-c2cc(F)c(N3CCC(=O)CC3)c(F)c2)nn1 [Example 85, {1-[3,5-Difluoro-4-(4-oxo-piperidin-1-yl)-phenyl]-1H-[1,2,3]triazol-4-ylmethyl}thiocarbamic acid O-methyl ester] | 175 to 176 °C
